Patent US20190175783A1, “High-Throughput Method for Detecting Tooth Stain Prevention and Removal” (Johnson & Johnson Consumer Inc., priority 2017, published 2019)

What was measured:
[1] = Stain prevention test (450 nm absorbance of stain displaced after pre-treatment)
Protocol: Stain Prevention Test Procedure: • 1. Form a pellicle coat on hydroxyapatite (HAp) particles by mixing the particles with saliva and incubating the mixture. • 2. Transfer HAp particle/saliva suspension into a large batch filter container. • 3. Filter the saliva supernatant to waste. • 4. Treat pellicle coated HAp particles, sending the supernatant to waste. • 5. Filter the treated, pellicle coated HAp particles, sending the supernatant to waste. • 6. Stain the pre-treated pellicle coated HAp particles by adding a stain solution directly to the filter container and incubate. • 7. Wash any loosely bound stain off the pre-treated, pellicle coated HAp particles. • 8. Elute the stain from the stained, pre-treated, pellicle coated HAp particles 5% PPi solution. • 9. Filter and collect supernatant. • 10. Make UV-Vis absorbance measurements on collected supernatant.
A mass of 1 gram of hydroxyapatite particles (Bio-Rad, Hercules, Calif., catalogue 1570020) was suspended in artificial saliva at a concentration of 10 milligram/100 microliter and allowed to incubate for 15 minutes at 37° C. to form a pellicle coating. A volume of 100 microliter per sample was aliquoted into respective filter vesicle (96-well filter plate or filter tube) and the supernatant was filtered out from the particles (n=3 per sample treatment). The treatment solutions were prepared within a range of 0% to 2% polyphosphate solution in water. The stock 2% w/v solution was serial diluted 1:1 in water to achieve treatment concentrations of polyphosphates of 1%, 0.5%, 0.25%, 0.125%, 0.0625%, and 0.03125% w/v. The 0% solution was a water control. The pellicle coated hydroxyapatite particles were exposed to 200 microliter of treatment solution of polyphosphate for at least 1 minute at room temperature with agitation (120 rpm). The treatment was removed by filtration and the particles were exposed to 100 microliter of a 10% instant coffee stain solution and incubated at 37° C. for 30 minutes. The coffee was removed by filtration and the particles were washed of any loosely bound stain. The residual stain on the particles was displaced with 200 microliter of an alkaline 5% pyrophosphate solution by incubating at room temperature for 10 minutes. The displaced stain was collected in a 96-well plate and absorbance measurements were made (Tecan, Infinite M200 Pro) between 230 and 1000 nm with a 10 nm step increase between measurements. The absorbance at 450 nm was used as a measure of stain prevention, with the lower absorbance values indicating more stain prevented from attaching to hydroxyapatite particle.

[2] = Stain removal test (450 nm absorbance of stain removed)
Protocol: • 1. Form a pellicle coat on hydroxyapatite (HAp) particles by mixing the particles with saliva and incubating the mixture. • 2. Transfer HAp particle/saliva suspension into a large batch filter container. • 3. Filter the saliva supernatant to waste. • 4. Stain particles by adding a stain solution directly to the filter container and incubate. • 5. Transfer stained, pellicle coated HAp particle suspension into filter container. • 6. Filter the stained, pellicle coated HAp particles, sending the supernatant to waste. • 7. Re-suspend stained, pellicle coated HAp particles in water, and optionally store for future testing. • 8. Prepare stained, pellicle coated HAp particles for treatment. • 9. Treat stained HAp particles. • 10. Filter and collect the supernatant. • 11. Make UV-Vis absorbance measurements on collected supernatant.
A mass of one gram of hydroxyapatite powder (Bio-Rad, Hercules, Calif., catalogue 1570020) was suspended in artificial saliva (Northeast Laboratories, Winslow, Me., catalogue no. T0300) at a concentration of 10 milligram/100 microliter and allowed to incubate for 15 minutes at 37° C. to form a pellicle coating. The supernatant was filtered out from the particles. The particles were re-suspended in 10% instant coffee stain solution at a concentration of 10 milligram/100 microliter and incubated at 37° C. for 30 minutes. The coffee solution was removed by filtration and the particles were washed of any loosely bound stain. The now coffee stained, pellicle coated hydroxyapatite particles were suspended in water at a concentration of 10 milligram/100 microliter. A volume of 100 microliter per sample was aliquoted into respective filter vesicle (96-well filter plate or filter tube) and the supernatant was filtered out from the particles (n=3 per sample). The treatment solutions were prepared within a range of 0% to 2% polyphosphate solution in water. The stock 2% w/v solution was serial diluted 1:1 in water to achieve treatment concentrations of polyphosphates of 1%, 0.5%, 0.25%, 0.125%, 0.0625%, and 0.03125% w/v. The 0% solution was a water control. After, the stained hydroxyapatite particles were exposed to 200 microliter of respective treatment for 1 or 2 minutes at room temperature with agitation (120 rpm). The polyphosphate treatment solutions ranged from 0.031% to 2% w/v. A negative control, using distilled water as the treatment solution, was tested as a comparison to the polyphosphate treatment solutions. […] Subsequently, absorbance measurements (Tecan, Infinite M200 Pro) were made between 230 and 1000 nm with a 10 nm step increase between measurements. The absorbance at 450 nm was used as a measure of stain removed, where higher absorbance values indicated more stain displaced from the hydroxyapatite particles.

[3] = concentration from 0.500% to 2.00%
[4] = concentration increased from 0.031% to 0.500%

## polyphosphate [polyphosphate solutions]
[1]; 1-, 2- and 10-minute stain prevention pre-treatments
  stain prevention, effect of pre-treatment time: no significant difference
[1]; [3]
  level of stain removal (450 nm absorbance of displaced stain): remained constant
[1]; [4]
  stain prevention (450 nm absorbance): stain prevention increased
[1]; polyphosphate 0.031% to 2% w/v in water, 1-, 2- and 10-minute pre-treatments, 10% instant coffee stain, FIG. 2
  450 nm absorbance values of stain displaced as a function of concentration: clear dose response
[2]; 1 versus 2 minute treatments
  stain removal, effect of treatment time: no significant difference
[2]; [3]
  level of stain removal (450 nm absorbance): remained constant
[2]; [4]
  stain removal (450 nm absorbance): stain removal increased
[2]; polyphosphate 0.031% to 2% w/v in water, 1- and 2-minute treatments, 10% instant coffee stain, FIG. 1
  450 nm absorbance values of stain removed as a function of concentration: clear dose response
